Assay results as given in patent US11932624B2, “MDM2 degraders and uses thereof” (Kymera Therapeutics, Inc., priority 2020, dated 2024).

What follows are molecules tested on RS411 cells (assay: Cell Viability CTG Assay (CellTiter Glo) in RS411 cells). Details: Homo sapiens, RS4-11, 24 h, duration 1 day.
Format: cell-based
Summary of the method: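 RS411 cells at 1000 cells/well were exposed to compound (top final 10 μM, 3-fold, 11 doses; 0.2% DMSO) at 37 °C, 5% CO2 for 1-4 days. Viability was read by CellTiter Glo luminescence after 10 min at RT. IC50 is reported as letter-code bins.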

SMILES | IC50 [nM]
CN1[C@@H](C(=O)N[C@H]2CC[C@H](CN3CCC(C#Cc4ccc5c(c4)n(C)c(=O)n5C4CCC(=O)NC4=O)CC3)CC2)[C@H](c2cccc(Cl)c2F)[C@]2(C(=O)Nc3cc(Cl)ccc32)C12CCC(C)(C)CC2 (some centres unmarked) [I-123] | < 50
CN1[C@@H](C(=O)N[C@H]2C[C@@](C)(O)C2)[C@H](c2cccc(Cl)c2F)[C@]2(C(=O)N(CCCCCCCC#Cc3ccc4c(c3)n(C)c(=O)n4C3CCC(=O)NC3=O)c3cc(Cl)ccc32)C12CCCCC2 (some centres unmarked) [I-124] | > 1000
Cn1c(=O)n(C2CCC(=O)NC2=O)c2ccc(CCCCCNC[C@H]3CC[C@H](NC(=O)[C@@H]4NC5(CCCCC5)[C@@]5(C(=O)Nc6cc(Cl)ccc65)[C@H]4c4cccc(Cl)c4F)CC3)cc21 (some centres unmarked) [I-125] | < 50
Cn1c(=O)n(C2CCC(=O)NC2=O)c2ccc(CCCCCNCc3ccc(NC(=O)[C@@H]4NC5(CCCCC5)[C@@]5(C(=O)Nc6cc(Cl)ccc65)[C@H]4c4cccc(Cl)c4F)cc3)cc21 (some centres unmarked) [I-126] | < 50
C#CCCCCCCCC1N(c2ccc(C(=O)NC)cc2OC)C(=O)[C@H]2[C@H](c3cccc(Cl)c3F)[C@@](C#N)(c3ccc(Cl)cc3F)[C@H](CC(C)(C)C)N12 (stereo partly drawn) [I-127, 4-[(5S,6R,7S,7aR)-7-(3-chloro-2-fluoro-phenyl)-6-(4-chloro-2-fluoro-phenyl)-6-cyano-5-(2,2-dimethylpropyl)-3-non-8-ynyl-1-oxo-3,5,7,7a-tetrahydropyrrolo[1,2-c]imidazol-2-yl]-3-methoxy-N-methyl-benzamide] | > 1000
C#CCCCCCCCN1C(=O)[C@@]2(c3ccc(Cl)cc31)[C@@H](c1cccc(Cl)c1F)[C@H](C(=O)N[C@H]1C[C@@](C)(O)C1)N(C)C21CCCCC1 [I-128, (3′R,4'S,5′R)-6″-chloro-4′-(3-chloro-2-fluorophenyl)-N-((1s,3S)-3-hydroxy-3-methylcyclobutyl)-1′-methyl-1″-(non-8-yn-1-yl)-2″-oxodispiro[cyclohexane-1,2′-pyrrolidine-3′,3″-indoline]-5′-carboxamide] | > 1000
C#CCCCCCCCN1C(=O)[C@@]2(c3ccc(Cl)cc31)[C@@H](c1cccc(Cl)c1F)[C@H](C(=O)O)N(C)C21CCCCC1 [I-129, (3′R,4'S,5′R)-6″-chloro-4′-(3-chloro-2-fluorophenyl)-1′-methyl-1″-(non-8-yn-1-yl)-2″-oxodispiro[cyclohexane-1,2′-pyrrolidine-3′,3″-indoline]-5′-carboxylic acid] | > 1000
CN1[C@@H](C(=O)NC23CCC(C(=O)N4CCC(C#Cc5ccc6c(c5)n(C)c(=O)n6C5CCC(=O)NC5=O)CC4)(CC2)CC3)[C@H](c2cccc(Cl)c2F)[C@]2(C(=O)Nc3cc(Cl)ccc32)C12CCCCC2 (stereo partly drawn) [I-130, (3′R,4'S,5′R)-6″-chloro-4′-(3-chloro-2-fluorophenyl)-N-(4-(4-((1-(2,6-dioxopiperidin-3-yl)-3-methyl-2-oxo-2,3-dihydro-1H-benzo[d]imidazol-5-yl)ethynyl)piperidine-1-carbonyl)bicyclo[2.2.2]octan-1-yl)-1′-methyl-2″-oxodispiro[cyclohexane-1,2′-pyrrolidine-3′,3″-indoline]-5′-carboxamide] | < 50
CCN1[C@@H](C(=O)NC23CCC(CN(C)CCCCCc4ccc5c(c4)n(C)c(=O)n5C4CCC(=O)NC4=O)(CC2)CC3)[C@H](c2cccc(Cl)c2F)[C@]2(C(=O)Nc3cc(Cl)ccc32)C12CCCCC2 (stereo partly drawn) [I-131, (3′R,4'S,5′R)-6″-chloro-4′-(3-chloro-2-fluorophenyl)-N-(4-(((5-(1-(2,6-dioxopiperidin-3-yl)-3-methyl-2-oxo-2,3-dihydro-1H-benzo[d]imidazol-5-yl)pentyl)(methyl)amino)methyl)bicyclo[2.2.2]octan-1-yl)-1′-ethyl-2″-oxodispiro[cyclohexane-1,2′-pyrrolidine-3′,3″-indoline]-5′-carboxamide] | 50 to 100
O=C1CCC(N2Cc3c(C#CC4CCN(C(=O)[C@H]5CC[C@H](NC(=O)[C@@H]6NC7(CCCCC7)[C@@]7(C(=O)Nc8cc(Cl)ccc87)[C@H]6c6cccc(Cl)c6F)CC5)CC4)cccc3C2=O)C(=O)N1 (some centres unmarked) [I-134] | < 50
CC(C)(C)C[C@@H]1N[C@@H](C(=O)N[C@H]2CC[C@H](CN3CCC(C#Cc4ccn5c(N6CCC(=O)NC6=O)cnc5c4)CC3)CC2)[C@H](c2cccc(Cl)c2F)[C@@]1(C#N)c1ccc(Cl)cc1F [I-135] | > 1000
Cn1c(=O)n(C2CCC(=O)NC2=O)c2ccc(C#CCCN3CCN(C(=O)[C@H]4CC[C@H](NC(=O)[C@@H]5NC6(CCCCC6)[C@@]6(C(=O)Nc7cc(Cl)ccc76)[C@H]5c5cccc(Cl)c5F)CC4)CC3)cc21 (some centres unmarked) [I-136] | < 50
Cn1c(=O)n(C2CCC(=O)NC2=O)c2cccc(C3CCN(C(=O)[C@H]4CC[C@H](NC(=O)[C@@H]5NC6(CCC(C)(C)CC6)[C@@]6(C(=O)Nc7cc(Cl)ccc76)[C@H]5c5cccc(Cl)c5F)CC4)CC3)c21 (some centres unmarked) [I-137] | < 50
Cn1c(=O)n(C2CCC(=O)NC2=O)c2ccc(CCC3CCN(CCNC(=O)[C@@H]4NC5(CCCCC5)[C@@]5(C(=O)Nc6cc(Cl)ccc65)[C@H]4c4cccc(Cl)c4F)CC3)cc21 (some centres unmarked) [I-138] | > 1000
Cn1c(=O)n(C2CCC(=O)NC2=O)c2cccc(CN3CCC(OC4CCN(Cc5ccc(NC(=O)[C@@H]6NC7(CCCCC7)[C@@]7(C(=O)Nc8cc(Cl)ccc87)[C@H]6c6cccc(Cl)c6F)cc5)CC4)CC3)c21 (some centres unmarked) [I-139] | < 50
Cn1c(=O)n(C2CCC(=O)NC2=O)c2cccc(C#CC3CCN(C[C@H]4CC[C@H](CNC(=O)[C@@H]5NC6(CCCCC6)[C@@]6(C(=O)Nc7cc(Cl)ccc76)[C@H]5c5cccc(Cl)c5F)CC4)CC3)c21 (some centres unmarked) [I-140] | 500 to 1000
Cn1c(=O)n(C2CCC(=O)NC2=O)c2cccc(CCCN3CCN(CCCNC(=O)[C@@H]4NC5(CCCCC5)[C@@]5(C(=O)Nc6cc(Cl)ccc65)[C@H]4c4cccc(Cl)c4F)CC3)c21 (some centres unmarked) [I-141] | > 1000
O=C1CCN(c2cncc3cc(C#CC4CCN(C[C@H]5CC[C@H](NC(=O)[C@@H]6NC7(CCCCC7)[C@@]7(C(=O)Nc8cc(Cl)ccc87)[C@H]6c6cccc(Cl)c6F)CC5)CC4)ccc23)C(=O)N1 [I-142] | 50 to 100

SMILES | IC50 [nM]
O=C1CCC(N2Cc3c(C#CC4CCN(C(=O)C56CCC(NC(=O)[C@@H]7NC8(CCCCC8)[C@@]8(C(=O)Nc9cc(Cl)ccc98)[C@H]7c7cccc(Cl)c7F)(CC5)CC6)CC4)cccc3C2=O)C(=O)N1 (some centres unmarked) [I-143] | < 50
O=C1CCN(c2cnc3cc(C4CCN(C(=O)c5ccc(NC(=O)[C@@H]6NC7(CCCCC7)[C@@]7(C(=O)Nc8cc(Cl)ccc87)[C@H]6c6cccc(Cl)c6F)cc5)CC4)ccn23)C(=O)N1 [I-144] | 50 to 100
O=C1CCN(c2cncc3c(C#CC4CCN(C[C@H]5CC[C@H](NC(=O)[C@@H]6NC7(CCCCC7)[C@@]7(C(=O)Nc8cc(Cl)ccc87)[C@H]6c6cccc(Cl)c6F)CC5)CC4)cccc23)C(=O)N1 [I-146] | 100 to 500
Cn1c(=O)n(C2CCC(=O)NC2=O)c2ccc(CCCN3CCN(C[C@H]4CC[C@H](NC(=O)[C@@H]5NC6(CCC(C)(C)CC6)[C@@]6(C(=O)Nc7cc(Cl)ccc76)[C@H]5c5ccnc(Cl)c5F)CC4)CC3)cc21 (some centres unmarked) [I-147] | < 50
Cn1c(=O)n(C2CCC(=O)NC2=O)c2cccc(C#CC3CCN(C[C@H]4CC[C@H](NC(=O)[C@@H]5NC6(CCC(C)(C)CC6)[C@@]6(C(=O)Nc7cc(Cl)ccc76)[C@H]5c5ccnc(Cl)c5F)CC4)CC3)c21 (some centres unmarked) [I-148] | < 50
Cn1c(=O)n(C2CCC(=O)NC2=O)c2ccc(C#CC3CCN(C[C@H]4CC[C@H](NC(=O)[C@@H]5NC6(CCC(C)(C)CC6)[C@@]6(C(=O)Nc7cc(Cl)ccc76)[C@H]5c5ccnc(Cl)c5F)CC4)CC3)cc21 (some centres unmarked) [I-149] | < 50
O=C1CCN(c2cnc3c(C#CC4CCN(C[C@H]5CC[C@H](NC(=O)[C@@H]6NC7(CCCCC7)[C@@]7(C(=O)Nc8cc(Cl)ccc87)[C@H]6c6cccc(Cl)c6F)CC5)CC4)cccn23)C(=O)N1 [I-150] | < 50
Cn1c(=O)n(C2CCC(=O)NC2=O)c2ccc(CCCCCNC(=O)[C@H]3CC[C@H](NC(=O)[C@@H]4NC5(CCC(C)(C)CC5)[C@@]5(C(=O)Nc6cc(Cl)ccc65)[C@H]4c4ccnc(Cl)c4F)CC3)cc21 (some centres unmarked) [I-151] | 100 to 500
Cn1c(=O)n(C2CCC(=O)NC2=O)c2ccc(C(=O)CC3CCN(C[C@H]4CC[C@H](NC(=O)[C@@H]5NC6(CCOCC6)[C@@]6(C(=O)Nc7cc(Cl)ccc76)[C@H]5c5cccc(Cl)c5F)CC4)CC3)cc21 (some centres unmarked) [I-152] | 500 to 1000
Cn1c(=O)n(C2CCC(=O)NC2=O)c2ccc(C#CC3CCN(C[C@H]4CC[C@H](NC(=O)[C@@H]5NC6(CCOCC6)[C@@]6(C(=O)Nc7cc(Cl)ccc76)[C@H]5c5cccc(Cl)c5F)CC4)CC3)cc21 (some centres unmarked) [I-153] | < 50
Cn1c(=O)n(C2CCC(=O)NC2=O)c2ccc(CCN3CC4(CCN(C[C@H]5CC[C@H](NC(=O)[C@@H]6NC7(CCCCC7)[C@@]7(C(=O)Nc8cc(Cl)ccc87)[C@H]6c6cccc(Cl)c6F)CC5)CC4)C3)cc21 (some centres unmarked) [I-154] | < 50
CC1(C)CCC2(CC1)N[C@@H](C(=O)N[C@H]1CC[C@H](CN3CCC(C#Cc4cccn5c(N6CCC(=O)NC6=O)cnc45)CC3)CC1)[C@H](c1ccnc(Cl)c1F)[C@]21C(=O)Nc2cc(Cl)ccc21 [I-155] | < 50
CN1[C@@H](CN[C@H]2CC[C@H](C(=O)N3CCC(CCc4ccc5c(c4)n(C)c(=O)n5C4CCC(=O)NC4=O)CC3)CC2)[C@H](c2cccc(Cl)c2F)[C@]2(C(=O)Nc3cc(Cl)ccc32)C12CCCCC2 (some centres unmarked) [I-156] | > 1000
Cn1c(=O)n(C2CCC(=O)NC2=O)c2ccc(CCCCCNC(=O)[C@@H]3CCC(NC(=O)[C@@H]4NC5(CCC(C)(C)CC5)[C@@]5(C(=O)Nc6cc(Cl)ccc65)[C@H]4c4ccnc(Cl)c4F)CO3)cc21 (some centres unmarked) [I-157] | < 50
CN1[C@@H](C(=O)N[C@H]2CC[C@H](CN3CCC4(CC3)CN(CCc3ccc5c(c3)n(C)c(=O)n5C3CCC(=O)NC3=O)C4)CC2)[C@H](c2cccc(Cl)c2F)[C@]2(C(=O)Nc3cc(Cl)ccc32)C12CCCCC2 (some centres unmarked) [I-158] | < 50
Cn1c(=O)n(C2CCC(=O)NC2=O)c2cccc(CCN3CC4(CCN(C[C@H]5CC[C@H](NC(=O)[C@@H]6NC7(CCCCC7)[C@@]7(C(=O)Nc8cc(Cl)ccc87)[C@H]6c6cccc(Cl)c6F)CC5)CC4)C3)c21 (some centres unmarked) [I-159] | < 50
CN(CCCCCc1ccc2c(c1)n(C)c(=O)n2C1CCC(=O)NC1=O)Cc1ccc(NC(=O)[C@@H]2NC3(CCCCC3)[C@@]3(C(=O)Nc4cc(Cl)ccc43)[C@H]2c2cccc(Cl)c2F)c(F)c1 (some centres unmarked) [I-161] | < 50
